Measurements: ChEMBL document CHEMBL5608240, “Structure-Activity Relationship of Inositol Thiophosphate Analogs as Allosteric Activators of Clostridioides difficile Toxin B” (J Med Chem, 2024)
The source made the active and inactive calls. The calls are words filed in the database; no cut-off is given here.

Assays:
[1] = Metal chelating activity assessed as compound-Ca2+ complex formation by measuring precipitation at 250 uM at pH 2 to 8 incubated for 30 mins in presence of 3 to 10 mM CaCl2 by turbidimetric assay
[2] = target: Toxin B (Clostridioides difficile) (UniProt P18177); assay: Allosteric activation of Clostridioides difficile Toxin B assessed as induction of autoproteolysis by measuring increase in TcdB cleavage at 50 uM incubated for 3 hrs in presence of 10 mM MgCl2 by silver staining based SDS-PAGE analysis
Toxin B (Clostridioides difficile), sequence (P18177 whole entry, the tested form may be a part): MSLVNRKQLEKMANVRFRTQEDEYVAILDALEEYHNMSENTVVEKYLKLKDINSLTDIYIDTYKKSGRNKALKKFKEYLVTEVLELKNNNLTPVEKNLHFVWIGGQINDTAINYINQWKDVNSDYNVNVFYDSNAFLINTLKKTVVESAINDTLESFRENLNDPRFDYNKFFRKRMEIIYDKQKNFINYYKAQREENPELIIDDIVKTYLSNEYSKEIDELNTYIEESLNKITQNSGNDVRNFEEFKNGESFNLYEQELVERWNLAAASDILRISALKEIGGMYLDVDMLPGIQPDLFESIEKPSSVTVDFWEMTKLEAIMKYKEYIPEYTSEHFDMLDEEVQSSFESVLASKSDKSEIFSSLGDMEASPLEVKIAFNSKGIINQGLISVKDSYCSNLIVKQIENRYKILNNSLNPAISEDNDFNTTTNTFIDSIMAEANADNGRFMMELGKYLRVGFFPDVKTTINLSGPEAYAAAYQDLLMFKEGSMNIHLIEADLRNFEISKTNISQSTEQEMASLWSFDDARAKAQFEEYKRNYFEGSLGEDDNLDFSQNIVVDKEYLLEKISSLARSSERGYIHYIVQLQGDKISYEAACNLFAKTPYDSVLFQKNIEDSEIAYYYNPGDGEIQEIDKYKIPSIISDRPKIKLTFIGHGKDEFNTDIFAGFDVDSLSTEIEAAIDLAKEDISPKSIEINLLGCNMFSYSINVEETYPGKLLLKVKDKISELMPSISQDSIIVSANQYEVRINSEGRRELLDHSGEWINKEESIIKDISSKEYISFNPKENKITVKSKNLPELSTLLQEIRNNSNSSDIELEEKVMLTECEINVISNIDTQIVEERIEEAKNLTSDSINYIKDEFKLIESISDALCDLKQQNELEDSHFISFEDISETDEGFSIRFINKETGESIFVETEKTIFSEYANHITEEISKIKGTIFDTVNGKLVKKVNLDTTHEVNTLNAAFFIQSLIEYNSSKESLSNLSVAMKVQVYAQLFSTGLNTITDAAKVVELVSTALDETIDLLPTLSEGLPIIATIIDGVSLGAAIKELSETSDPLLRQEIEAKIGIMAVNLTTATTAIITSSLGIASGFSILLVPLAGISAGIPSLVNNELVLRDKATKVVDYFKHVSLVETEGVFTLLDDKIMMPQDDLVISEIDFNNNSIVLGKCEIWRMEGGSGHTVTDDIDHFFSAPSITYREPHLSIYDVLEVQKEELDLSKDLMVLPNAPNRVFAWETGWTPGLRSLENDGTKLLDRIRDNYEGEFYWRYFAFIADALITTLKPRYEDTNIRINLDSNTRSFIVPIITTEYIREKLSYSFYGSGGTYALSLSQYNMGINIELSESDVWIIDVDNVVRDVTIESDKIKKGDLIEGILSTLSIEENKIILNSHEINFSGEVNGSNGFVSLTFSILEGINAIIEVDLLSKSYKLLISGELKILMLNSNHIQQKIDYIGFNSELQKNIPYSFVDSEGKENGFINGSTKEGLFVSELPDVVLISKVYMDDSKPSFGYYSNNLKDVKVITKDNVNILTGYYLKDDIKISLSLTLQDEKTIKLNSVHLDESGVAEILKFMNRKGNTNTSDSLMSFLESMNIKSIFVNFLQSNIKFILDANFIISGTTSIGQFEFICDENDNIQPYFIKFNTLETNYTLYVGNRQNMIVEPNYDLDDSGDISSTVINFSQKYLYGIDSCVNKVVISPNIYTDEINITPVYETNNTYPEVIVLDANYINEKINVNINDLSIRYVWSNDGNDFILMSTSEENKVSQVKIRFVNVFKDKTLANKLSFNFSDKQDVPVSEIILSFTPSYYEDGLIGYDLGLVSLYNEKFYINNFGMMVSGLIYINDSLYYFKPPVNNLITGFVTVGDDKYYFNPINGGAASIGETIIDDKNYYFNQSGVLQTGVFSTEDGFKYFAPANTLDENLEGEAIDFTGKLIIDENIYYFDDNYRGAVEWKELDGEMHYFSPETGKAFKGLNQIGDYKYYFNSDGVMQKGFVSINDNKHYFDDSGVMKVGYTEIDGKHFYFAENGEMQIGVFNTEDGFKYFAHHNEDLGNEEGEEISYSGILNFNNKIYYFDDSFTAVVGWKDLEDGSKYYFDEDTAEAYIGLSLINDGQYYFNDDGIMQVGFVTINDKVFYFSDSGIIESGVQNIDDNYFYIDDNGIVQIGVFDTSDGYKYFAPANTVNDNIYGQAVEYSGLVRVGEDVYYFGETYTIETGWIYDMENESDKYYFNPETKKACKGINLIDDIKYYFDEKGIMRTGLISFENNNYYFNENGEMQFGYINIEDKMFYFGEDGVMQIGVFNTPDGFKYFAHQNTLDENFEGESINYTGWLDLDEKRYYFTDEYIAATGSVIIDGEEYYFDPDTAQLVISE

[3] = target: Toxin B (Clostridioides difficile) (UniProt P18177); assay: Competitive binding affinity to His6 tagged Clostridioides difficile […]-Toxin B truncated cysteine protease domain (543 to 799 residues) extracted from Escherichia coli BL21 (DE3) assessed as peaks with change in chemical shift perturbation at 350 uM by 31P-NMR analysis
Toxin B [4] = target: T1, Toxin B (Clostridioides difficile, UniProt P18177); assay: Allosteric activation of Clostridioides difficile Toxin B assessed as induction of autoproteolysis measured after 3 hrs by Western blot based extent cleavage assay
T1 sequence (P18177 whole entry, the tested form may be a part): as above

[5] = target: Toxin B (Clostridioides difficile) (UniProt P18177); assay: Stabilization of His6 tagged Clostridioides difficile Toxin B truncated cysteine protease domain (543 to 799 residues) extracted from Escherichia coli BL21 (DE3) assessed as change in melting temperature by SYPRO Orange dye based differential scanning fluorometry analysis
[6] = target: Toxin B (Clostridioides difficile) (UniProt P18177); assay: Stabilization of His6 tagged Clostridioides difficile apo-Toxin B truncated cysteine protease domain (543 to 799 residues) extracted from Escherichia coli BL21 (DE3) assessed as chemical shift perturbation by measuring increase in number of peaks by 1H-15N-HSQC NMR analysis (reference value: 141)
[7] = target: Toxin B (Clostridioides difficile) (UniProt P18177); assay: Allosteric activation of Clostridioides difficile Toxin B assessed as induction of autoproteolysis by measuring increase in TcdB cleavage at 50 uM incubated for 3 hrs in presence of 10 mM CaCl2 by silver staining based SDS-PAGE analysis relative to control
[8] = target: Toxin B (Clostridioides difficile) (UniProt P18177); assay: (§1) Competitive binding affinity to His6 tagged Clostridioides difficile Toxin B truncated cysteine protease domain (543 to 799 residues) extracted from Escherichia coli BL21 (DE3) assessed as peaks with change in chemical shift perturbation by measuring residual activity at 350 uM in presence of 1,3,5-(Tri-O-thiophosphate)-myo-inositol-2,4,6-tri-O-sulfate by 1H-15N-HSQC NMR analysis relative to control; settings: filed as positive allosteric modulator
Toxin B [9] = target: T1, Toxin B; assay: Allosteric activation of Clostridioides difficile Toxin B assessed as induction of autoproteolysis measured after 3 hrs in presence of CaCl2, MgCl2, ZnCl2 by Western blot based extent cleavage assay
[10] = target: Toxin B (Clostridioides difficile) (UniProt P18177); assay: Allosteric activation of Clostridioides difficile Toxin B assessed as induction of autoproteolysis by measuring increase in TcdB cleavage at 50 uM incubated for 3 hrs in presence of 1.25 mM MgCl2 by silver staining based SDS-PAGE analysis
Toxin B [11] = target: T1, Toxin B; assay: Binding affinity to His6 tagged Clostridioides difficile Toxin B truncated cysteine protease domain (543 to 799 residues) extracted from Escherichia coli BL21 (DE3) assessed as dissociation constant by ITC method
[12] = target: Toxin B (Clostridioides difficile) (UniProt P18177); assay: Allosteric activation of Clostridioides difficile Toxin B assessed as induction of autoproteolysis by measuring increase in TcdB cleavage at 50 uM incubated for 3 hrs in presence of 3 mM CaCl2 by silver staining based SDS-PAGE analysis
[13] = target: Toxin B (Clostridioides difficile) (UniProt P18177); assay: Allosteric activation of Clostridioides difficile Toxin B assessed as induction of autoproteolysis by measuring increase in TcdB cleavage at 50 uM incubated for 3 hrs in presence of 100 uM ZnCl2 by silver staining based SDS-PAGE analysis
[14] = target: Toxin B (Clostridioides difficile) (UniProt P18177); assay: Allosteric activation of Clostridioides difficile Toxin B assessed as induction of autoproteolysis by measuring maximal extent cleavage measured after 3 hrs by Western blot based extent cleavage assay relative to control; settings: filed as positive allosteric modulator
[15] = target: Toxin B (Clostridioides difficile) (UniProt P18177); assay: Binding affinity to His6 tagged Clostridioides difficile Toxin B truncated cysteine protease domain (543 to 799 residues) extracted from Escherichia coli BL21 (DE3) assessed as change in number of bound protons per binding interaction at 530 uM by ITC analysis; settings: filed as positive allosteric modulator
[16] = Metal chelating activity assessed as compound-Mg2+ complex formation by measuring precipitation at 250 uM at pH 2 to 8 incubated for 30 mins in presence of 1.25 to 10 mM MgCl2 by turbidimetric assay
Toxin B [17] = target: T1, Toxin B; assay: Binding affinity to His6 tagged Clostridioides difficile Toxin B truncated cysteine protease domain (543 to 799 residues) extracted from Escherichia coli BL21 (DE3) assessed as dissociation constant in presence of 10 mM Ca2+ by ITC method
[18] = Solubility of compound assessed as precipitate formation at 250 uM at pH 2 to 8 incubated for 30 mins in presence of 3 to 10 mM CaCl2 by turbidimetric assay; format: physicochemical; settings: buffer, pH 2, 0.5 h
[19] = Solubility of compound assessed as precipitate formation at 250 uM at pH 2 to 8 incubated for 30 mins in presence of 1.25 to 10 mM MgCl2 by turbidimetric assay; format: physicochemical; settings: buffer, pH 2, 0.5 h
[20] = Metal chelating activity assessed as compound-Mg2+ complex formation by measuring reduction in free cation concentration at 200 uM in presence of 200 uM MgCl2 by colorimetric assay
[21] = Solubility of compound assessed as precipitate formation at 250 uM at pH 2 to 8 incubated for 30 mins in presence of 20 to 100 uM ZnCl2 by turbidimetric assay; format: physicochemical; settings: buffer, pH 2, 0.5 h
[22] = Metal chelating activity assessed as compound-Ca2+ complex formation by measuring reduction in free cation concentration at 200 uM in presence of 200 uM CaCl2 by colorimetric assay
[23] = target: Toxin B (Clostridioides difficile) (UniProt P18177); assay: Allosteric activation of Clostridioides difficile Toxin B assessed as induction of autoproteolysis by measuring increase in TcdB cleavage at 50 uM measured after 3 hrs by silver staining based SDS-PAGE analysis relative to control; settings: filed as positive allosteric modulator
[24] = target: Toxin B (Clostridioides difficile) (UniProt P18177); assay: as §1, with “(1R,2r,3S,4R,5s,6S)-cyclohexane-1,2,3,4,5,6-hexayl hexakis (dihydrogen phosphate)” for “1,3,5-(Tri-O-thiophosphate)-myo-inositol-2,4,6-tri-O-sulfate”; settings: filed as positive allosteric modulator
[25] = target: Toxin B (Clostridioides difficile) (UniProt P18177); assay: Stabilization of His6 tagged Clostridioides difficile holo-Toxin B truncated cysteine protease domain (543 to 799 residues) extracted from Escherichia coli BL21 (DE3) assessed as peaks with change in chemical shift perturbation at 350 uM by 1H-15N-HSQC NMR analysis relative to control
[26] = target: Toxin B (Clostridioides difficile) (UniProt P18177); assay: Allosteric activation of Clostridioides difficile Toxin B assessed as induction of autoproteolysis by measuring increase in TcdB cleavage measured after 3 hrs by silver staining based SDS-PAGE analysis; settings: filed as positive allosteric modulator
[27] = filed as positive allosteric modulator

SMILES | EC50 (Toxin B [4]) [µM] | ΔTm [5] [°C] | EC50 (Toxin B [9]) [µM] | Activity [10] | Kd (Toxin B [11]) [µM] | Activity [12] | Activity [13] | Activity [15] | Kd (Toxin B [17]) [µM] | solubility [18] | solubility [19] | Activity [20] | solubility [21] | Activity [22] | further results
O=P(O)(O)O[C@H]1[C@H](OP(=O)(O)O)[C@@H](OP(=O)(O)O)[C@H](OP(=O)(O)O)[C@@H](OP(=O)(O)O)[C@H]1OP(=O)(O)O [PHYTIC ACID] | 8.39 | 3.3 | 536 | inactive | 1.36 | inactive | inactive | -1.28 |  |  |  |  |  |  | Activity [1]: Active; Activity [2]: 23%; Activity [3]: inactive; Activity [6]: 193; Activity [7]: 6%; Activity [8]: 47%; Activity [14]: 98%; Activity [16]: Active
O=S(=O)(O)O[C@H]1[C@H](OP(O)(O)=S)[C@@H](OS(=O)(=O)O)[C@H](OP(O)(O)=S)[C@@H](OS(=O)(=O)O)[C@H]1OP(O)(O)=S |  |  |  |  | 2.26 |  |  | -0.01 | 5.37 |  |  |  |  |  | 
OP(O)(=S)O[C@H]1[C@H](OP(O)(O)=S)[C@@H](OP(O)(O)=S)[C@H](OP(O)(O)=S)[C@@H](OP(O)(O)=S)[C@H]1OP(O)(O)=S | 2.31 | 5.6 | 657 | inactive | 0.184 | inactive | inactive |  |  | Soluble | Soluble | Active | Soluble | Active | 
O=S(=O)(O)O[C@@H]1[C@@H](OS(=O)(=O)O)[C@H](OS(=O)(=O)O)[C@H](OP(O)(O)=S)[C@H](OS(=O)(=O)O)[C@H]1OS(=O)(=O)O |  |  |  |  | 7.14 |  |  |  |  | Soluble | Soluble |  | Soluble |  | 
O=S(=O)(O)O[C@H]1[C@@H](OS(=O)(=O)O)[C@H](OS(=O)(=O)O)[C@@H](OP(O)(O)=S)[C@H](OS(=O)(=O)O)[C@H]1OS(=O)(=O)O |  | 3.1 |  | inactive | 2.19 | inactive | inactive |  |  |  |  | Active |  | Active | Activity [23]: Active
O=S(=O)(O)O[C@H]1[C@H](OP(O)(O)=S)[C@H](OS(=O)(=O)O)[C@H](OP(O)(O)=S)[C@@H](OS(=O)(=O)O)[C@@H]1OP(O)(O)=S | 3.56 | 5.1 | 113 | inactive | 0.662 | inactive | inactive | -0.03 | 2.66 | Soluble | Soluble | Active | Soluble | Active | Activity [24]: 7%; Activity [2, 27]: 42%; Activity [3, 27]: Active; Activity [6]: 208; Activity [7, 27]: 51%; Activity [23]: Active; Activity [25]: 49%; Activity [14]: 117%
O=S(=O)(O)O[C@@H]1[C@@H](OP(O)(O)=S)[C@H](OS(=O)(=O)O)[C@H](OS(=O)(=O)O)[C@H](OS(=O)(=O)O)[C@H]1OP(O)(O)=S | 27.1 | 5.3 | 557 | inactive | 2.2 | inactive | inactive | 0.11 | 4.69 | Soluble | Soluble | Active | Soluble | Active | 
O=P(O)(O)O[C@@H]1[C@@H](OP(=O)(O)O)[C@H](OP(=O)(O)O)[C@H](OCc2ccccc2)[C@H](OP(=O)(O)O)[C@H]1OP(=O)(O)O |  |  |  |  |  |  |  |  |  |  |  |  |  |  | Activity [26]: Active
